Data as given in patent US20260041796A1, “REGULATION OF IMMUNE RESPONSES THROUGH SELECTIVE NEURAL ACTIVATION” (The Trustees of Columbia University in the City of New York, priority 2021, published 2026).

Legend:
[1] = test system: LPS-TRAPed population in the cNST; experiment: Blood cytokine levels after LPS with chemogenetic (DREADD) activation of LPS-TRAPed cNST neurons; type: in vivo
Experimental: FIG. 12 illustrates the effect of neuronal stimulation in the caudal nucleus of the solitary tract on the immune response. […] Neuronal populations were chemogenetically activated with designer receptor exclusively activated by a designer drug (DREADD) while the animal is given LPS and cytokine levels in the blood were measured. In the control animals, LPS induced the strong release of pro-inflammatory TNFa, reaching 200 pg/ml in the peripheral blood. When this brainstem neuronal population was activated with DREADD, there was a remarkable suppression of pro-inflammatory cytokine release, resulting in 90% reduction in the TNFa in the blood. The same results were obtained for another proinflammatory cytokine, IL-6. In addition to suppressing the release of pro-inflammatory cytokines, activation of this neuronal population markedly increase the release of the anti-inflammatory cytokine, IL-10. Thus, this brain circuit triggers a strong anti-inflammatory response while suppressing pro-inflammatory cytokines. Note that under normal conditions (control) the immune insult triggers a very large induction of pro-inflammatory cytokines (TNFa; left panels), and this induction is suppressed by activation of the cNST neurons (compare bars). […]
FIG. 19 illustrates that activating cNST-responsive neurons dramatically suppresses inflammatory responses. […] These neurons were artificially activated after LPS using a synthetic drug, CNO, and then cytokine levels in the circulation were analyzed in response to LPS.
It was shown that neurons in the caudal nucleus of the solitary tract (cNST) in the brainstem are activated by peripheral (intraperitoneal) administration of LPS (lipopolysaccharide), a potent inducer of inflammatory responses (FIG. 5). […] Next, to uncover the role of these cNST neurons in immune responses, a chemogenetic silencer was introduced by genetic Trapping, and the effect of silencing these cNST neurons in the emergence of LPS-induced inflammatory responses was evaluated. […]

vagal sensory neurons = experiment: In-vivo calcium imaging (GCaMP6s) of nodose ganglion after intraperitoneal cytokine; conditions: intraperitoneal injection; no response to saline or glucose
Experimental: FIG. 7 illustrates a subset of neurons in the nodose ganglion that respond to pro-inflammatory cytokines. Calcium responses in vagal sensory neurons expressing the genetically encoded fluorescent calcium indicator GCaMP6s were imaged while administering cytokines intraperitoneally. The platform was modified to image the response of vagal sensory neurons to cytokines. The cytokine was administered via intraperitoneal injection and calcium activity in the nodose ganglion was monitored. Heat maps depicting z-score-normalized fluorescence traces from vagal neurons identified as responders of proinflammatory cytokine (TNFa). Neural activity was detected using an in-vivo calcium imaging platform with genetically encoded calcium indicator GCaMP6 expressed in all vagal sensory neurons. Each trial represents the activity of a single cell. […]
FIG. 8 illustrates a subset of neurons in the nodose ganglion that respond to anti-inflammatory cytokines. Heat maps depicting z-score-normalized fluorescence traces from vagal neurons identified as responders of anti-inflammatory cytokines (IL-4). […] Neural activity was detected using an in-vivo calcium imaging platform with genetically encoded calcium indicator GCaMP6 expressed in all vagal sensory neurons. […] The cytokine was administered via intraperitoneal injection and calcium activity in the nodose ganglion was monitored. […]

[2] = test system: caudal nucleus of the solitary tract (cNST); experiment: Fos induction in the brain after peripheral LPS immune challenge; type: in vivo; conditions: LPS stimulus vs saline control; c-fos as proxy for neural activity
From the text: Peripheral immune challenge evokes brain activities. LPS was used to induce an innate immune response and the brain was examined for the induction of c-fos as a proxy for neural activity. […] When the body experiences bacterial infections, the bacterial membrane component lipopolysaccharide (LPS) triggers strong innate immune response. LPS (right) but not saline control (left) strongly activates cNST (circled area). For each condition, a representative image from N>=3 animals is shown. Scale bar: 100 μm. Strong bilateral c-fos labeling was detected in the caudal nucleus of the solitary tract (cNST) in the brainstem.
A brainstem circuit that functions as a conduit to convey peripheral immune information to the brain was identified. […] Using an activity marker (cFos induction), it was determined that a selective population of neurons in the brain are activated in response to administration of a peripheral immune insult.
It was shown that neurons in the caudal nucleus of the solitary tract (cNST) in the brainstem are activated by peripheral (intraperitoneal) administration of LPS (lipopolysaccharide), a potent inducer of inflammatory responses (FIG. 5). […] Next, to uncover the role of these cNST neurons in immune responses, a chemogenetic silencer was introduced by genetic Trapping, and the effect of silencing these cNST neurons in the emergence of LPS-induced inflammatory responses was evaluated.

[3] = test system: caudal nucleus of the solitary tract (cNST); experiment: TRAP activity-based labelling of LPS-responsive neurons; type: in vivo; conditions: LPS-treated vs saline treated animals
From the text: The activity based labelling strategy, TRAP, was used to identify and access neuronal populations activated during LPS induced inflammation. Neurons TRAPed by LPS (right) but not saline control (left) are seen in the cNST (circled area). For each condition, a representative image from N>=3 animals is shown. Scale bar: 500 μm.
It was shown that neurons in the caudal nucleus of the solitary tract (cNST) in the brainstem are activated by peripheral (intraperitoneal) administration of LPS (lipopolysaccharide), a potent inducer of inflammatory responses (FIG. 5). […] In other words, the brain monitors and modulates immune responses in the body. […] Next, to uncover the role of these cNST neurons in immune responses, a chemogenetic silencer was introduced by genetic Trapping, and the effect of silencing these cNST neurons in the emergence of LPS-induced inflammatory responses was evaluated.

[4] = TRAPed cNST neurons activated after LPS, cytokine levels in the circulation

C[N+]1([O-])CCN(C2=Nc3cc(Cl)ccc3Nc3ccccc32)CC1 [CNO, clozapine N-oxide]
levels of anti-inflammatory cytokines [1, 4]: very large increase | release of pro-inflammatory cytokines [1, 4]: dramatic suppression

TNFa
calcium activity in a subset of vagal sensory neurons (vagal sensory neurons): robust activity

lipopolysaccharide [LPS]
Fos induction in the cNST [2]: Strong Fos induction | TNFa in the peripheral blood ([1]; control animals given LPS, no neuronal activation): 200 pg/mL | labelling of cNST with fluorescence reporter (tdTomato) [3]: Strong labelling

B1: IL-4: anti-inflammatory cytokine administered intraperitoneally (protein, UniProt P05112 25-153, looked up)
Interleukin-4: HKCDITLQEIIKTLNSLTEQKTLCTELTVTDIFAASKNTTEKETFCRAATVLRQFYSHHEKDTRCLGATAQQFHRHKQLIRFLKRLDRNLWGLAGLNSCPVKEANQSTLENFLERLKTIMREKYSKCSS
calcium activity in a subset of vagal sensory neurons (vagal sensory neurons): robust activity
